≈ marks a conversion by molar mass, not a printed value. Where “and” joins values, the source holds several entries; their conditions need not be identical. Equal values may be shown once. Marks after values point to notes of the source that are not given here.
Tests used:
[1] = PAMPA test (hexadecane membrane), passive gastrointestinal absorption; type: in vitro ADME; conditions: for Papp at 5 h, 0.05 mM / –logPe: donor pH 5.5, acceptor pH 7.4, 5 h, room temperature; for Papp at 5 h, 0.05 mM: read-out: Pe (effective passive permeability coefficient)
Description: The PAMPA test uses a 96-well plate coated with an impregnated filter material, forming an artificial membrane that separates donor and acceptor compartments. Egg lecithin in dodecane is commonly used to simulate membrane lipids, while hexadecane is effective for mimicking gastrointestinal membranes. […] Therefore, hexadecane dissolved in hexane was chosen in this study.
The phosphate buffer solution was prepared by dissolving 0.5292 g of NaH2PO4 × H2O and 0.0234 g of Na2HPO4 in purified water (200 mL). The phosphate buffer was divided into two portions, and the pH was adjusted to pH 5.5 and pH 7.4 using o-phosphoric acid. The donor solutions were prepared by diluting the stock solutions (5 mM DMSO solutions) with the buffer pH 5.5 to obtain the final concentration of 0.05 mM (the DMSO concentration in the donor solutions was 1%), while the acceptor solution was prepared as a 1% DMSO solution in the buffer pH 7.4. The use of DMSO as a cosolvent in PAMPA is necessary in cases of low-soluble compounds. It is usually used in concentrations up to 5% [25, 55, 56, 57].
The PAMPA test was performed according to the literature procedure using a 96-well microtiter polycarbonate filter plate (Merck Millipore, Carrigtwohill, Ireland) that was impregnated with 15 µL of a hexadecane/hexane (5:95, v/v) solution [52]. Donor solutions (300 µL per well) were transferred into each well of the donor plate. Acceptor solution was transferred into each well (300 µL per well) of the acceptor plate (MSSACCEPTOR, Millipore, Burlington, MA, USA) and covered by the donor plate to create a PAMPA sandwich. The system was incubated at room temperature for 5 h at a vibratory mixer. After incubation, the PAMPA sandwich was dissociated, and concentrations of all tested compounds in each well, as well as in the starting solutions, were determined using the HPLC method (Section 3.3.1).
The concentrations of tested compounds in the starting solutions, as well as in the donor and acceptor sections after incubation, were determined by the HPLC method on the Dionex Ultimate 3000 (Thermo Fisher Scientific, Waltham, MA, USA) equipped with a quaternary pump, autosampler, and DAD detector using a ZORBAX Eclipse XDB-C18 4.6 × 150 mm, 5 µm column (Agilent Technologies, Santa Clara, CA, USA).
R represents the retention, which is defined as the fraction of the tested compound retained in the PAMPA membrane (filters and plate materials), CD(t) is the concentration of a tested compound in a donor compartment after incubation time t, CA(t) is the concentration of a tested compound in an acceptor compartment after incubation time t, while CD(0) represents the concentration of a tested compound in a donor compartment at the beginning of the incubation (starting solution).

[2] = Stability in acidic medium (0.01 M HCl); type: physicochemical; conditions: for The Decrease in Peak Area (%): 0.01 M HCl pH 2, 2 h; for Peak Area, t: 0.01 M HCl pH 2, after 2 h; for Peak Area, t0: 0.01 M HCl pH 2, start of incubation
Description: In order to test gastric stability, compounds were incubated in 0.01 M HCl (pH = 2) for 2 h. Moreover, 0.01 M HCl was chosen because this acid is naturally present in the stomach and simulates its pH (between 1 and 3), while incubation time (2 h) corresponds to the average retention of drugs in the stomach after an oral administration. Peak areas at the beginning (t0) and at the end of the incubation (t) and the decrease in peak areas between these two time points are presented in Table 5.
Acidic medium was simulated by a 0.01 M HCl solution, which was prepared by diluting 0.1 M HCl with distilled water. Stock solutions of tested compounds (5 mM DMSO solutions) were diluted with the medium to obtain a concentration of 0.05 mM. Tested compounds were investigated immediately after preparation (t0) and after a defined incubation time (t) by injecting these solutions into the HPLC chromatograph in duplicates (the HPLC method used was the same as described in Section 3.3.1). The difference between peak areas at t0 and t time points and the eventual occurrence of additional chromatographic peaks after incubation were analyzed.

Solubility in water = type: physicochemical; conditions: distilled water, thermodynamic from solid, room temperature
Description: As discussed in the previous section, all tested compounds are dominantly unionized in the whole range of physiologically important pH values (2 < pH ≤ 7.4). Therefore, water was used for the determination of solubility. […] According to USP34, all tested compounds can be defined as practically insoluble since their solubilities are ≤100 mg/L [54].
Solubility of tested compounds was investigated at room temperature. Compounds were weighed on a scale (5 mg each) and transferred to flasks. In a stepwise procedure, increasing volumes of distilled water were added, and after each addition of an amount of water, the mixture was placed on an ultrasound bath for 5 min and visually inspected for undissolved parts of the sample. When no […] could be observed, the mixture was transferred into a glass cylinder, and opalescence was compared with water. If the mixture was not more opalescent than the solvent, the solvation was considered to be achieved. Solubility of a compound is defined according to the amount of solvent required to dissolve 1 mg.

[3] = tested on: CD-1 mouse liver microsomes; conditions: pH 7.4; for Peak Area, t0: 0 min
Description: Microsomal stability (and thus susceptibility to metabolism) was tested using microsomes derived from CD-1 mouse liver. According to the applied protocol, both phases of metabolism were activated by the addition of cofactors NADPH and UDP-GlcUA. […] Stock solutions of all tested compounds (5 mM DMSO solutions) were diluted with 0.1 M potassium phosphate buffer pH 7.4 to obtain 0.1 mM solutions, which were further incubated according to the protocol. In order to activate both the 1st and 2nd phases of metabolism, NADPH and UDP-GlcUA were used as cofactors. Tested compounds were incubated at 37 °C for 30 min, and the incubation was quenched immediately after the addition of cofactors (t0) and after the defined incubation time (t) by mixing 100 µL of corresponding incubation mixtures with 200 µL of cold acetonitrile. All compounds were tested in duplicates, and their concentrations were determined using the HPLC-MS/MS method (Section 3.7.1).
The HPLC-MS/MS analysis was performed on the UHPLC chromatograph ACELLA (Thermo Fisher Scientific Inc., Madison, WI, USA), coupled to a triple quadrupole mass spectrometer TSQ Quantum Access MAX (Thermo Fisher Scientific Inc., Madison, WI, USA) with a heated electrospray ionization (HESI) interface. The column used was Zorbax Extend C18 (150 mm × 4.6 mm, 5 µm; Agilent Technologies), which was thermostated at 25 °C. The mobile phase consisted of acetonitrile and 0.1% formic acid (60:40, v/v), with a flow rate of 500 µL/min. The injection volume was 10 µL.

CC(=O)N(O)C(C)c1ccc(CC(C)C)cc1 (stereo not shown) [Compound 11]
Membrane retention (R) ([1]; PAMPA): 24% | Papp at 5 h, 0.05 mM ([1]; PAMPA): 146 ×10⁻⁶ cm/s | –logPe [1]: 3.84 ± 0.05 | The Decrease in Peak Area (%) [2]: 1.63 (p = 0.073) % | Peak Area, t [2]: 10.83 ± 0.03 | Peak Area, t0 [2]: 11.01 ± 0.02 | solubility at 5 min (Solubility in water): 19.4 µg/mL (≈ 82.2 µM) | Peak Area, t0 [3]: 60.0 ± 1.4 ×10^3 | Peak Area, t ([3]; 30 min): 44.6 ± 1.9 ×10^3

COc1ccc2c(c1)c(CNC(=O)NO)c(C)n2C(=O)c1ccc(Cl)cc1 [Compound 1]
Papp at 5 h, 0.05 mM ([1]; PAMPA): 42.9 ×10⁻⁶ cm/s | The Decrease in Peak Area (%) [2]: 0.07 (p = 0.2839) ^a % | Peak Area, t [2]: 8.27 ± 0.00 | Peak Area, t0 [2]: 8.28 ± 0.01 | solubility at 5 min (Solubility in water): 1.5 µg/mL (≈ 3.87 µM) | Peak Area, t0 [3]: 131.5 ± 16.8 ×10^3 | Peak Area, t ([3]; 30 min): 60.5 ± 6.4 ×10^3

COc1ccc2cc(C(C)N(O)C(C)=O)ccc2c1 (stereo not shown) [Compound 12]
Papp at 5 h, 0.05 mM ([1]; PAMPA): 157 ×10⁻⁶ cm/s | –logPe [1]: 3.81 and 3.81 ± 0.04 | The Decrease in Peak Area (%) [2]: 0.24 (p = 0.4399) % | Peak Area, t [2]: 48.54 ± 0.39 | Peak Area, t0 [2]: 48.66 ± 0.49 | solubility at 5 min (Solubility in water): 11.8 µg/mL (≈ 45.4 µM) | Peak Area, t0 [3]: 43.9 ± 3.2 ×10^3 | Peak Area, t ([3]; 30 min): 18.2 ± 0.1 ×10^3

CC(NC(=O)NO)c1ccc(-c2ccccc2)c(F)c1 (stereo not shown) [Compound 2]
Papp at 5 h, 0.05 mM ([1]; PAMPA): 17.6 ×10⁻⁶ cm/s | The Decrease in Peak Area (%) [2]: 0.34 (p = 0.4501) % | Peak Area, t [2]: 6.55 ± 0.07 | Peak Area, t0 [2]: 6.57 ± 0.12 | solubility at 5 min (Solubility in water): 14.3 µg/mL (≈ 52.1 µM) | Peak Area, t0 [3]: 16.5 ± 3.1 ×10^3 | Peak Area, t ([3]; 30 min): 9.6 ± 3.0 ×10^3 | The Decrease in Peak Area (%) ([3]; 30 min): 41.65 (p = 0.0034) %

O=C(NO)NCc1ccccc1Nc1c(Cl)cccc1Cl [Compound 3]
Papp at 5 h, 0.05 mM ([1]; PAMPA): 77.3 ×10⁻⁶ cm/s | –logPe [1]: 4.11 ± 0.02 | The Decrease in Peak Area (%) [2]: 2.33% and 2.33 (p = 0.0159) % | Peak Area, t [2]: 6.27 ± 0.10 | Peak Area, t0 [2]: 6.42 ± 0.11 | solubility at 5 min (Solubility in water): 5.45 µg/mL (≈ 16.7 µM) | Peak Area, t0 [3]: 1033.6 ± 42.5 ×10^3 | Peak Area, t ([3]; 30 min): 455.5 ± 8.9 ×10^3
